Test results as given in US20120245137A1 (Zalicus Pharmaceuticals Ltd., priority 2009, published 2012).
Where two headings read alike, the source gives them in different places.

Assays:
Type in all cases: cell-based
Human Cav 2.2 channels = Human Cav 2.2 channels (Homo sapiens, UniProt Q00975); experiment: Fluorescent assay for CaV2.2 channels using potassium depolarization (VIPR/FLIPR); conditions: FLIPR data; for CAv2.2 IC50 Ratio closed/inact.: ratio closed/inactivated IC50
Outline: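 Fluo-4 calcium fluorescence (480/535 nm) was recorded on VIPR or FLIPR after depolarization to 70 mM final potassium. Before this, cells were preincubated 30 min at 25 °C with compound in 4–30 mM potassium, so that state-dependent block could be assessed; the cells were HEK293 coexpressing Cav2.2, α2δ, β and Kir2.3.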

T-type calcium channel [1] = target: T-type calcium channel (Homo sapiens, UniProt O43497); experiment: T-type channel blocking, FLIPR data (Table 6); conditions: CAv3.1
Text: (§1) Another method, high-throughput spectrophotometric assay, utilizes loading of the cell lines with a fluorescent dye sensitive to intracellular calcium concentration and subsequent examination of the effects of compounds on the ability of depolarization by potassium chloride or other means to alter intracellular calcium levels.

T-type calcium channel [2] = target: T-type calcium channel (Homo sapiens, UniProt O95180); experiment: T-type channel blocking, FLIPR data (Table 6); conditions: for CAv3.2 IC50 Ratio closed/inact.: CAv3.2, ratio closed/inactivated IC50
Text: as §1

CAv1.2 = CAv1.2 (Homo sapiens, UniProt Q13936); experiment: FLIPR data, CAv1.2 channel blocking (Table 6); conditions: for CAv1.2 IC50 Ratio closed/inact.: ratio closed/inactivated IC50
Chain of CAv1.2 (Q13936 whole entry): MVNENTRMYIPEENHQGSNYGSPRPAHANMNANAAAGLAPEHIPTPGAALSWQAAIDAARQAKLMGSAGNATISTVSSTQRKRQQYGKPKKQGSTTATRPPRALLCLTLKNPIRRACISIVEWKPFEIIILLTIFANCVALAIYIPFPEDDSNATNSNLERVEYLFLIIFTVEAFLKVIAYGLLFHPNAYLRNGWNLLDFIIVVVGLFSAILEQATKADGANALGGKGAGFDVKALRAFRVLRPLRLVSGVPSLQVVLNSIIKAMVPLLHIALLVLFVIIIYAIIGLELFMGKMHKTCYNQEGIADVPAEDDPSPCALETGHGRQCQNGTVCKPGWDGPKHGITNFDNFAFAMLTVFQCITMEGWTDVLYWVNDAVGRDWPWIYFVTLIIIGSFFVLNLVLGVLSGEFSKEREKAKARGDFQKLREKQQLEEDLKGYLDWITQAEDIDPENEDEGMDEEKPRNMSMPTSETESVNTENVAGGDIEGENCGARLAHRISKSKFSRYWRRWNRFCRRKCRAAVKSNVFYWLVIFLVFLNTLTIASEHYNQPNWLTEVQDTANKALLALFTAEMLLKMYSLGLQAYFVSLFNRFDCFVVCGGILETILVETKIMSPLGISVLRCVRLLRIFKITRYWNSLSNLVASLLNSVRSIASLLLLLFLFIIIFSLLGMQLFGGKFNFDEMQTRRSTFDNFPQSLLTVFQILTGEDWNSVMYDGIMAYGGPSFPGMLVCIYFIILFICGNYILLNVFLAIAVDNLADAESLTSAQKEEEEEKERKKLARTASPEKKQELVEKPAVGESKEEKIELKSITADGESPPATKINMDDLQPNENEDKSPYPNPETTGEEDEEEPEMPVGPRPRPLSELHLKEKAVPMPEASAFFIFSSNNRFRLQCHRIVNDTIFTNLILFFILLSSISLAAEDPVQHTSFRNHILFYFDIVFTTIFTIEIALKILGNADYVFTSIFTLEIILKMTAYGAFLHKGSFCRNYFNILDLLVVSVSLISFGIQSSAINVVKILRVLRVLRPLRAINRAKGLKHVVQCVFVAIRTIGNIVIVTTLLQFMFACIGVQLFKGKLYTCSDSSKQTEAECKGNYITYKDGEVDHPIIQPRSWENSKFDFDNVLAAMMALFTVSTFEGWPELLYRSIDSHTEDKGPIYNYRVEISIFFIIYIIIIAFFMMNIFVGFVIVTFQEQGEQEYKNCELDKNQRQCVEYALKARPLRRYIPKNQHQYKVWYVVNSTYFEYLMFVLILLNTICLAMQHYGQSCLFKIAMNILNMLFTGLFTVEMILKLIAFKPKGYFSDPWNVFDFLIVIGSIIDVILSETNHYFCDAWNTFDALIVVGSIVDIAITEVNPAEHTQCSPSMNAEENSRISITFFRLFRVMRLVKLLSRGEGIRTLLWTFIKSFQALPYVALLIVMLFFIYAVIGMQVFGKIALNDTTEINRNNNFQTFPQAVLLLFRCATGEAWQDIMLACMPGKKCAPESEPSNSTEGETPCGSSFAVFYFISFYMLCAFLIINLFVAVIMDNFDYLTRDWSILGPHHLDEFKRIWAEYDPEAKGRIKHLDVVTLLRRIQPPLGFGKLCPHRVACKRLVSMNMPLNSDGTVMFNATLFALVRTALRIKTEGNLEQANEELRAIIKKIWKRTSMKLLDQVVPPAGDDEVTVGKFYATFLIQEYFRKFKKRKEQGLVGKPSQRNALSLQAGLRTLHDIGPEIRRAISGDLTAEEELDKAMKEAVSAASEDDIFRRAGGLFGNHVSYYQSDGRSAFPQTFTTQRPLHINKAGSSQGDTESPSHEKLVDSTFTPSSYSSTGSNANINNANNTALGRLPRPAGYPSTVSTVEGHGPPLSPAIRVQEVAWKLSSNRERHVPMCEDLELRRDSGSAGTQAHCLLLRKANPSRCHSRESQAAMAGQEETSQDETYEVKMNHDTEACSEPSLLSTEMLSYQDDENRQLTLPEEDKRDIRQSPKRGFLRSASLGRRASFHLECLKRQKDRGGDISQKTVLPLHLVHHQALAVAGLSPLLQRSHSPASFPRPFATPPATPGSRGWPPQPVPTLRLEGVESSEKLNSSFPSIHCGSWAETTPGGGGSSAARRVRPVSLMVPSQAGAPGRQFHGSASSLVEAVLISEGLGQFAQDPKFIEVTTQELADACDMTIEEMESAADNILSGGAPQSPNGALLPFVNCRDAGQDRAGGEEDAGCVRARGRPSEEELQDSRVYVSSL
Chain of CAv1.2 (P54289 25-1103 partner): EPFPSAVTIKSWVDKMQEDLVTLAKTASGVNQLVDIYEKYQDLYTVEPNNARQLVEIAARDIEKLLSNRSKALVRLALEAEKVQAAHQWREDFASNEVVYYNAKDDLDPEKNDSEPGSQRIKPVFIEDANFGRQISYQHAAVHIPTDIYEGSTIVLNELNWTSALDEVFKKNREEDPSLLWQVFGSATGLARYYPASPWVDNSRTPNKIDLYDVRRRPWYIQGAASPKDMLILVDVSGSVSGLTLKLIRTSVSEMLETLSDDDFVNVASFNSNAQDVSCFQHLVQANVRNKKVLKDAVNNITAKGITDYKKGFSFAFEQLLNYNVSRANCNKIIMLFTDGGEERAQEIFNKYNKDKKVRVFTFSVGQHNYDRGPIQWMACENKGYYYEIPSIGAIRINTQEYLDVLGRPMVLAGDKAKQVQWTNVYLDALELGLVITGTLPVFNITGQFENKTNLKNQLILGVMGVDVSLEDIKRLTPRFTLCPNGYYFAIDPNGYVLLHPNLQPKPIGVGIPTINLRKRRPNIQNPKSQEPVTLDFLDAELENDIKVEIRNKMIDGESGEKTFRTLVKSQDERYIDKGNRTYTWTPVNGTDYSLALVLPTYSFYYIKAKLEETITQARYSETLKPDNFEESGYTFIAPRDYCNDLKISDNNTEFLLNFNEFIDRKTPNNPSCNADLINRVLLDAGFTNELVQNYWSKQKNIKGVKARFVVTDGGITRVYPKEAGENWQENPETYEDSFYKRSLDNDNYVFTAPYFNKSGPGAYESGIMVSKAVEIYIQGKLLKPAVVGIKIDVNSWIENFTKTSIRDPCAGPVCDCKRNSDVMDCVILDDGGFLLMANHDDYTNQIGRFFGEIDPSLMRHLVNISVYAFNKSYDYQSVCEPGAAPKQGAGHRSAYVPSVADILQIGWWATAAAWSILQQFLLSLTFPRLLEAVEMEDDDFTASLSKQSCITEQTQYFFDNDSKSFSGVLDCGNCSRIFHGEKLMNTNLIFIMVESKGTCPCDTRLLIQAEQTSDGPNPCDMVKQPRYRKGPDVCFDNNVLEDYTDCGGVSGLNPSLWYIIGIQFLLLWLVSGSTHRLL
Chain of CAv1.2 (Q08289 whole entry partner): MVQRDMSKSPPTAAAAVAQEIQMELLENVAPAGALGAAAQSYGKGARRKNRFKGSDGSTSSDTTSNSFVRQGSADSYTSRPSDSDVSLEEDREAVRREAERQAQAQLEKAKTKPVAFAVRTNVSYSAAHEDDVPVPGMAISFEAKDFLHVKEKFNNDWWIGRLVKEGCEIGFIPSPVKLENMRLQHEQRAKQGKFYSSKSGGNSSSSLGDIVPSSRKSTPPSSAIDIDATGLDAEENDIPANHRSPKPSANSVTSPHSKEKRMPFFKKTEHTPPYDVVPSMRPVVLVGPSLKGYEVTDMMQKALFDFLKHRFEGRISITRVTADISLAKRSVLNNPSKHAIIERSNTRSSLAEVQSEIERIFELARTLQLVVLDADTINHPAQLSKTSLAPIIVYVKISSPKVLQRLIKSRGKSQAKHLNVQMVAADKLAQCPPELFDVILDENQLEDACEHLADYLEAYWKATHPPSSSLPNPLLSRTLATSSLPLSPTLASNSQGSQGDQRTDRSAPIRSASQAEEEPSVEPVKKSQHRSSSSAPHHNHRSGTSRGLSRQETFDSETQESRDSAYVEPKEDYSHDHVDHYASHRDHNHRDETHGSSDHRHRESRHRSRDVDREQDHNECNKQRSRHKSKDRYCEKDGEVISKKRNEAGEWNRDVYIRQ

[3] = closed state, read-out: CAv2.2 IC50 Closed
[4] = inactivated state, read-out: CAv2.2 IC50 Inact.
[5] = CAv3.2, closed state, read-out: CAv3.2 IC50 Closed
[6] = CAv3.2, inactivated state, read-out: CAv3.2 IC50 Inact.
[7] = closed state, read-out: CAv1.2 IC50 Closed
[8] = inactivated state, read-out: CAv1.2 IC50 Inact.

Structure (SMILES) | IC50 (Human Cav 2.2 channels; [3]) [µM] | IC50 (Human Cav 2.2 channels; [4]) [µM] | CAv2.2 IC50 Ratio closed/inact. (Human Cav 2.2 channels) | IC50 (T-type calcium channel [1]) [µM] | IC50 (T-type calcium channel [2]; [5]) [µM] | IC50 (T-type calcium channel [2]; [6]) [µM] | CAv3.2 IC50 Ratio closed/inact. (T-type calcium channel [2]) | IC50 (CAv1.2; [7]) [µM] | IC50 (CAv1.2; [8]) [µM] | CAv1.2 IC50 Ratio closed/inact. (CAv1.2)
CS(=O)(=O)c1cc(Cl)ccc1C(=O)NC[C@H]1C[C@H](S(=O)(=O)c2cccc(OC(F)(F)F)c2)C1 [Compound 692] | 7.75 | 0.78 | 9.9 | 9.81 | 7.92 | 2.48 | 3.2 | ≥ 10 | ≥ 10 | –
O=C(NC[C@H]1C[C@H](S(=O)(=O)c2cccc(OC(F)(F)F)c2)C1)c1ccc(Cl)cn1 [Compound 693] | 1.77 | 0.34 | 5.2 | ≥ 10 | 7.95 | 2.77 | 2.9 | ≥ 10 | 6.64 | 1.5
O=C(NC[C@H]1C[C@H](S(=O)(=O)c2cccc(OC(F)(F)F)c2)C1)c1ccc(C(F)(F)F)nc1 [Compound 695] | 5.12 | 0.78 | 6.6 | 9.87 | 8.58 | 5.58 | 1.5 | ≥ 10 | ≥ 10 | –
O=C(NC[C@H]1C[C@H](S(=O)(=O)c2cccc(OC(F)(F)F)c2)C1)c1cnc(C(F)(F)F)nc1 [Compound 696] | 7.07 | 0.94 | 7.5 | ≥ 10 | 9.92 | 6.35 | 1.6 | ≥ 10 | 8.33 | 1.2
O=C(NC[C@H]1C[C@H](S(=O)(=O)c2cc(F)cc(C(F)(F)F)c2)C1)c1ccc(Cl)cn1 [Compound 702] | 3.95 | 0.89 | 4.4 | ≥ 10 | 7.5 | 3.79 | 2 | 9.86 | 7.28 | 1.4
O=C(NC[C@H]1C[C@H](S(=O)(=O)c2cc(F)cc(C(F)(F)F)c2)C1)c1ccc(OCC(F)(F)F)nc1 [Compound 706] | 3.95 | 0.85 | 4.6 | 2.87 | 4.02 | 0.74 | 5.4 | 7.98 | 3.09 | 2.6
CC(C)(C[C@H]1C[C@H](NC(=O)c2ccc(Cl)cc2S(C)(=O)=O)C1)S(=O)(=O)c1cccc(C(F)(F)F)c1 [Compound 718] | 4.71 | 0.15 | 31.4 | ≥ 10 | 5.68 | 3.67 | 1.5 | ≥ 10 | ≥ 10 | –
CC(C)(C[C@H]1C[C@H](NC(=O)c2ccc(C(F)(F)F)cc2)C1)S(=O)(=O)c1cccc(C(F)(F)F)c1 [Compound 719] | 1.24 | 0.11 | 11.3 | 1.78 | 0.73 | 0.64 | 1.1 | 2.73 | 0.75 | 3.6
CC(C)(C[C@H]1C[C@H](NC(=O)c2cnc(C(F)(F)F)nc2)C1)S(=O)(=O)c1cccc(C(F)(F)F)c1 [Compound 721] | 4.86 | 0.51 | 9.5 | ≥ 10 | 8.44 | 4.32 | 2 | ≥ 10 | 4.57 | 2.2
CC(C)(C[C@H]1C[C@H](NC(=O)c2ccc(C(F)(F)F)cn2)C1)S(=O)(=O)c1cccc(C(F)(F)F)c1 [Compound 722] | 1.21 | 0.23 | 5.3 | 2.76 | 3.68 | 2.66 | 1.4 | 8.04 | 2.56 | 3.1

Further compounds by falling IC50 (Human Cav 2.2 channels; [3]), results first:

IC50 (Human Cav 2.2 channels; [3]) [µM] | IC50 (Human Cav 2.2 channels; [4]) [µM] | CAv2.2 IC50 Ratio closed/inact. (Human Cav 2.2 channels) | IC50 (T-type calcium channel [1]) [µM] | IC50 (T-type calcium channel [2]; [5]) [µM] | IC50 (T-type calcium channel [2]; [6]) [µM] | CAv3.2 IC50 Ratio closed/inact. (T-type calcium channel [2]) | Structure (SMILES) | IC50 (CAv1.2; [7]) [µM] | IC50 (CAv1.2; [8]) [µM] | CAv1.2 IC50 Ratio closed/inact. (CAv1.2)
10 | 1.65 | 6.1 | ≥ 10 | ≥ 10 | 8.75 | 1.1 | O=C(NC[C@H]1C[C@H](S(=O)(=O)c2cc(F)cc(C(F)(F)F)c2)C1)c1ccc(C(F)(F)F)nc1 [Compound 704] | – | ≥ 10 | –
10 | 2.47 | 4 | ≥ 10 | ≥ 10 | 10 | 1 | O=C(NC[C@H]1C[C@H](S(=O)(=O)c2cc(F)cc(C(F)(F)F)c2)C1)c1cnc(C(F)(F)F)nc1 [Compound 705] | ≥ 10 | ≥ 10 | –
6.49 | 0.83 | 7.8 | 1.86 | 4.14 | 1.39 | 3 | O=C(NC[C@H]1C[C@H](S(=O)(=O)c2cc(F)cc(C(F)(F)F)c2)C1)c1ccc(C(F)(F)F)cc1 [Compound 703] | 8.18 | 4.83 | 1.7
6.04 | 0.22 | 27.5 | ≥ 10 | ≥ 10 | 6.84 | 1.5 | CC(C)S(=O)(=O)c1cc(C(F)(F)F)cnc1C(=O)N[C@H]1C[C@H](CC(C)(C)S(=O)(=O)c2cccc(C(F)(F)F)c2)C1 [Compound 716] | 7.76 | 6.54 | 1.2
5.01 | 1.49 | 3.4 | ≥ 10 | ≥ 10 | 10 | 1 | O=C(NC[C@H]1C[C@H](S(=O)(=O)c2cc(F)cc(C(F)(F)F)c2)C1)c1ccnc(C(F)(F)F)n1 [Compound 710] | ≥ 10 | ≥ 10 | –
2.7 | – | 5.7 | 3.02 | 3.02 | – | 1.1 | O=C(NC[C@H]1C[C@H](S(=O)(=O)c2cccc(OC(F)(F)F)c2)C1)c1ccc(OCC(F)(F)F)nc1 [Compound 698] | 5.6 | 2.48 | 2.3
2.11 | 0.3 | 7 | 3.08 | 2.47 | 1 | 2.5 | O=C(NC[C@H]1C[C@H](S(=O)(=O)c2cccc(OC(F)(F)F)c2)C1)c1ccc(C(F)(F)F)cc1 [Compound 694] | 7.51 | 2.22 | 3.4
0.83 | 0.16 | 5.2 | 4.5 | 3.95 | 2.05 | 1.9 | CC(C)(C[C@H]1C[C@H](NC(=O)c2ccc(Cl)cn2)C1)S(=O)(=O)c1cccc(C(F)(F)F)c1 [Compound 720] | 7.01 | 2.45 | 2.9
